From patent US20140342065A1 (priority 2012, published 2014)
Read-outs that look alike come from different tables or passages of the source.

Experiments:
[1] = test system: bacteria and yeast; experiment: Agar plates stored with H2S gas 40 ppm (FIG. 11, 104); format: cell-based; conditions: H2S 40 ppm
Excerpt: Representative samples of foods shown include fruits, and vegetables. […] Control foods were stored in closed containers. The containers were made of aluminum with a plastic lid that snugly fitted onto the container rim. […] The inlet and outlet valves were then closed. Using a H2S gas detector capable of detecting 1 to 500 ppm of H2S, no H2S was detected outside the chamber. […] There is small change in color, consistency, and of the same food group and there is no evidence of growth of yeast in the H2S gas-treated group. Growth of bacteria and yeast was checked by taking samples of food and streaking them over agar. […] Strawberry 80. […] This growth was quite evident on day 5 (arrows, 81). The fruit also lost its consistency and is discolored. […] Banana, 86. Growth of yeast is seen by day 8 in the control group. The fruit also lost its consistency and is discolored. […] A slice of banana 99. […] The fruit also lost its consistency and is discolored. […] Pistachio 101. […] Green bananas 102. Green bananas in each group were used in this experiment. The control bananas ripened, developed a yellow color that still maintained some of their green color on day 8. Tomatoes 103. Green tomatoes in each group were used in this experiment. […] Samples from each fruit were diluted in phosphate buffered saline, pH 7.4. […]

[2] = test system: mice; conditions: cited from earlier work
[3] = 0.01-0.1 mol/liter solutions at 18° C.; cited from earlier work
[4] = test system: humans; conditions: cited from earlier work
[5] = test system: Strawberry, Blackberry, Raspberry, Banana, Tomato and Avocado; mold and/or bacteria
Excerpt: Representative samples include but are not limited to (Strawberry, Blackberry, Raspberry, Banana, Tomato and Avocado). Experiments were repeated at least four times and each food category included a minimum of six items in each group. The containers were made of gas impermeable plexi-glass that snugly fitted onto the container rim. Fruits were placed on regular kitchen towels that covered the bottom of the container. Control and experimental group (Exp) of fruits were placed in separate containers. […] When the level dropped below 5 ppm, the H2 gas was substituted. Experiment was carried out at room temperature for the durations shown.

[6] = test system: Banana, Tomato and slices of avocado; yeast and/or bacteria
Excerpt: Representative samples include fruits (Banana), and vegetables (Tomato) and slices of avocado. Experiments were repeated at least four times and each food category included a minimum of six items in each group. The containers were made of gas impermeable Plexiglas that snugly fitted onto the container rim. Fruits were placed on regular kitchen towels that covered the bottom of the containers. Control and experimental group (Exp) of fruits were placed in separate containers. The amount of H2S—H2 gas within the Exp containers varied from 5-15 ppm during the course of exposure. When the level dropped below 5 ppm, the H2 gas was substituted. Experiment was carried out at room temperature for the durations shown. […] Growth of bacteria and yeast was checked by taking samples of food and streaking them over agar. Samples from each fruit were diluted in phosphate buffered saline, pH 7.4. From each sample, 20 microliters was streaked on agar plates and plates were maintained either at room temperature or at 37° C.

[7] = in water; cited from earlier work
[8] = in water; cited from earlier work; remark: listed apart in the source
[9] = test system: strawberries; micro-organisms
Method: Fruits were treated without or with gas with each gas at 40 ppm. N=12, Differences between control and treated groups (P<0.05-P<0.005).

S [Hydrogen Sulfide]
time without growth following initiation of cultures [1]: up to 2 months | health consequences after the procedure ([2]; 81 ppm H2S, 6 hours): no negative health consequences | blood pressure ([2]; mice treated with Hydrogen Sulfide (81 ppm)): did not significantly decrease | side effects ([2]; range of 80 ppm): no side effects | pKa (giving the hydro-sulfide ion HS^−) [3]: 6.9 | lethal concentration for 50% of humans (LC50) ([4]; 5 minute exposure): 800 ppm | concentration at which the olfactory nerve is paralyzed ([4]; after a few inhalations): 100-150 ppm | concentration causing immediate collapse with loss of breathing ([4]; even after a single breath): over 1000 ppm | borderline concentration for eye irritation ([4]; in vivo): 10-20 ppm | concentration causing strong stimulation of the central nervous system and rapid breathing, leading to loss of breathing ([4]; in vivo): 530-1000 ppm | concentration leading to eye damage ([4]; in vivo): 50-100 ppm | concentration leading to pulmonary edema with the possibility of death ([4]; in vivo): 320-530 ppm | concentration with an exposure limit of 8 hours per day ([4]; in vivo): < 10 ppm | recognition threshold, concentration at which 50% of humans can detect the odor ([4]; in vivo): 0.0047 ppm | threshold level at which the oxidative (detoxifying) enzymes get overwhelmed ([4]; in vivo): 300-350 ppm

[HH] [Hydrogen]
food spoilage and growth of mold and/or bacteria ([5]; H2 5-45 ppm, closed container, room temperature): prevents food spoilage and retards but does not inhibit growth of mold and/or bacteria | day on which growth of mold is evident ([5]; Strawberry, Raspberry, Blackberry, control day 3, less severe than control): 4 days | discoloration and yeast growth on avocado slice ([5]; day 4): only moderate surface discoloration and no evidence of growth of yeast | ripening and surface discoloration of un-ripened bananas ([5]; day 4, versus control): less ripening and discoloration | ripening of un-ripened tomato ([5]; day 4, versus control): less ripening | food spoilage [6]: prevents food spoilage | reaction rate constant k, .O^− + H2 [7]: 8e+07 M⁻¹ s⁻¹ | reaction rate constant k, .OH + H2 [8]: 4.2e+07 M⁻¹ s⁻¹

[He] [Helium]
food spoilage ([6]; closed environment, room temperature): prevents food spoilage | growth of micro-organisms [9]: retarded but did not prevent growth of micro-organisms | effect on ripening and oxidation ([9]; relative to Hydrogen): greater than Hydrogen | prevention of food spoilage ([9]; relative to Hydrogen): comparable with Hydrogen
